Biological target: T1, HoxEFU (Synechocystis sp. PCC 6803, UniProt P74024)
T1 construct: gene hoxF; heterotrimeric diaphorase subcomplex without HoxYH; Strep-II tag with Ser-Ala linker at C-terminus of HoxF; codon-optimised, pET21, E. coli BL21 deltaiscR; anaerobic purification; with Bidirectional [NiFe] hydrogenase diaphorase subunit HoxE; Bidirectional [NiFe] hydrogenase diaphorase subunit HoxU
T1 sequence (P74024 1-533): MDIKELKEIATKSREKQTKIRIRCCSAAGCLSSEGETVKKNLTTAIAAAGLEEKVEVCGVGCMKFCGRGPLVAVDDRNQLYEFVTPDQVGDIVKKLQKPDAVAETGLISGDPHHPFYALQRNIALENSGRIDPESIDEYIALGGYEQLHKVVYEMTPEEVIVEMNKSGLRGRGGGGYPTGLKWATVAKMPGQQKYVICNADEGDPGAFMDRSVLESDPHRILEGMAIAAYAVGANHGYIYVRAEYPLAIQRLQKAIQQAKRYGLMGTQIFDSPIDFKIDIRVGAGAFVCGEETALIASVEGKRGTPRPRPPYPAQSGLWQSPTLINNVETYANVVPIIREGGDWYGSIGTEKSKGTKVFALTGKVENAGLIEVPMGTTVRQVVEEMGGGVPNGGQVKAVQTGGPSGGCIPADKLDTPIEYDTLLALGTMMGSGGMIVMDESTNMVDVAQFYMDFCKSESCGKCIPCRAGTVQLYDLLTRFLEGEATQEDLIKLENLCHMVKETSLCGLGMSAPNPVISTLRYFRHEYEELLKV
T1 sequence (P74025 1-173 partner): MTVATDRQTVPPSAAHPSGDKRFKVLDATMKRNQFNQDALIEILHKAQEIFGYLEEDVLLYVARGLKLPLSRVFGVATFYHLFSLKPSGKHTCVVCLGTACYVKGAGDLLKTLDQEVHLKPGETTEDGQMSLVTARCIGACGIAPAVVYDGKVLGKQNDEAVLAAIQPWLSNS
T1 sequence (P74022 1-238 partner): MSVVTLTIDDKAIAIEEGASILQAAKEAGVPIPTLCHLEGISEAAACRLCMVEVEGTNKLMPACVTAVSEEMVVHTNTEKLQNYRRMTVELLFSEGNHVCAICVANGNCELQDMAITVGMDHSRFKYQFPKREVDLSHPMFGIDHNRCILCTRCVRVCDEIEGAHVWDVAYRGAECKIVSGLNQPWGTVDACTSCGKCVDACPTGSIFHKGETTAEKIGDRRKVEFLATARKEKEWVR
Experiment: intrinsic protein fluorescence/FRET titration, equilibrium binding isotherm
Conditions: Hill fit (cooperative); excitation 285 nm, emission 348 nm

How did the Kd turn out when NC(=O)C1=CN([C@@H]2O[C@H](COP(=O)(O)OP(=O)(O)OC[C@H]3O[C@@H](n4cnc5c(N)ncnc54)[C@H](O)[C@@H]3O)[C@@H](O)[C@H]2O)C=CC1 [NADH] was run?
The Kd was 32 µM.

With NC(=O)c1ccc[n+]([C@@H]2O[C@H](COP(=O)(O)OP(=O)(O)OC[C@H]3O[C@@H](n4cnc5c(N)ncnc54)[C@H](OP(=O)(O)O)[C@@H]3O)[C@@H](O)[C@H]2O)c1 [NADP^+] as the molecule, how does the Kd read?
The Kd was 1950 ± 270 µM.

For NC(=O)c1ccc[n+]([C@@H]2O[C@H](COP(=O)(O)OP(=O)(O)OC[C@H]3O[C@@H](n4cnc5c(N)ncnc54)[C@H](O)[C@@H]3O)[C@@H](O)[C@H]2O)c1 [NAD^+], which Kd is on record?
Its Kd is 1350 ± 70 µM.

— article PMC7363133, “The structure and reactivity of the HoxEFU complex from the cyanobacterium Synechocystis sp. PCC 6803” (The Journal of Biological Chemistry, 2020)
